The source of these data is PubChem BioAssay (NCI).

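Each compound was tested at five concentrations against cells in 96-well plates for 48 hours. Here, GI50 denotes the concentration required for 50% inhibition of growth. TGI is the concentration that stops growth completely.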

Common to all, as to assay: NCI-60 cell line screen, 48 h
Assay [1] has as its system RXF 393 renal.
Assay [2] deals with MDA-MB-435.
Assay [3] relates to SNB-19 CNS.
In assay [4] the test system is OVCAR-5 ovarian.
Assay [5] has as its system A498 renal.
The test system of assay [6] is SK-OV-3 ovarian.
Assay [7] has as its system M14 melanoma.
For assay [8], the system named is SF-539 CNS.
Assay [9] has as its system NCI-H226 lung.
Assay [10] relates to HS 578T breast.

On to `CN(C)CCCn1c(-c2nonc2N)nc2cnccc21`, for which the GI50 in [1] is above 5190 nM; in [2], above 25000 nM; in assay [3] it was above 25000 nM; in assay [4] it was above 25000 nM; in assay [5], 12000 nM; in assay [6], above 25000 nM. Also, the GI50 is above 25000 nM in [7], above 25000 nM in assay [8], above 4990 nM in assay [9] and 19100 nM in assay [10]. Besides, the TGI in [1], in assay [2], in assay [3], in [4], in assay [5] and in [6] was above 25000 nM throughout. Besides, the TGI in [7], in assay [8], in [9] and in assay [10] was above 25000 nM each time.
Turning to `CCCCCCCCCCCCCCCCCC(=O)Nc1ccn(C2OC(CO)C(O)C2O)c(=O)n1` (centres undefined), the TGI in assay [1] is above 100000 nM; in assay [2], above 100000 nM; in [3] it was 69700 nM; in [4], above 100000 nM; in [5] it was 99000 nM; in assay [6] it was above 100000 nM. In addition, the TGI in [7] is above 77300 nM; in assay [8], above 100000 nM; in assay [9], above 100000 nM; in assay [10], above 100000 nM.
On to `C[C@@H]1COCCN1c1cc(C2(O)C[C@H]3CC[C@@H](C2)O3)c2cnn(-c3ccn[nH]3)c2n1` (some centres undefined), for which the GI50 in assay [1] was below 16.1 nM; in [2], 68.5 nM; in assay [3], 166 nM; in assay [4] it was 97.7 nM; in assay [5] it was 22.1 nM; in [6] it was 99.2 nM. The GI50 in [7] is 38.3 nM; in [8], 23 nM; in assay [9] it was 44.8 nM; in [10] it was 47.9 nM. For the same compound, the TGI came out at 58.1 nM in assay [1]; 692 nM in [2]; 1740 nM in assay [3]; 130 nM in [5]; 4030 nM in assay [6]; 785 nM in assay [7]. In addition, the values for the TGI in assay [8], in assay [9] and in assay [10] were 94.6 nM, 528 nM and 556 nM, respectively.
On to `Cc1cccc(Cc2cnc(NC(=O)CCc3ccc(C)o3)s2)c1`, for which the GI50 in assay [1] was 204 nM; in [2] it was 30.2 nM; in assay [3] it was 370 nM; in assay [4], 798 nM; in assay [5], 343 nM; in assay [6] it was 419 nM. Further, the GI50 is 136 nM in assay [7], 202 nM in [8], 8690 nM in assay [9] and 356 nM in assay [10]. For the same compound, the TGI in [1] is 3710 nM; in [2] it was 120 nM; in assay [3], above 100000 nM; in [4], above 100000 nM; in [5] it was 10500 nM; in [6], above 100000 nM. Moreover, the TGI in [7] was above 41400 nM; in assay [8], 642 nM; in assay [9], above 100000 nM; in assay [10], above 95300 nM.
Take `NC(=S)NN=C1CSSC1`: the GI50 in assay [1] was 1450 nM; in [2], 5790 nM; in [3], 2460 nM; in [4], 5260 nM; in assay [5], 1950 nM; in assay [6], 5250 nM. The GI50 was 1920 nM in [7], 2750 nM in assay [8], 1660 nM in [9] and 3490 nM in assay [10]. For the same compound, the TGI in assay [1] came to 5580 nM; in assay [2], 44700 nM; in [3], 11400 nM; in assay [4] it was 40900 nM; in assay [5] it was 6030 nM; in [6] it was 25100 nM. Moreover, the TGI stood at 7790 nM in assay [7], 7380 nM in [8], 14500 nM in [9] and 40000 nM in assay [10].
Take `O=C(c1ccccc1)c1c(C(F)(F)F)n([O-])c2ccc(C(F)(F)F)cc2[n+]1=O`: the GI50 in assay [1] was 175 nM; in [2], 567 nM; in assay [3] it was 830 nM; in assay [4] it was 264 nM; in assay [5], 1700 nM; in assay [6], 988 nM. The GI50 in assay [7] is 619 nM; in [8] it was 315 nM; in [9], 524 nM; in assay [10], 537 nM. Moreover, the TGI in [1] amounted to 342 nM; in assay [2], 1280 nM; in assay [3] it was 2100 nM; in assay [4] it was 753 nM; in assay [5] it was 3110 nM; in [6], 2380 nM. Moreover, the TGI in [7] turned out to be 1470 nM; in [8] it was 745 nM; in [9], 1200 nM; in assay [10], 1330 nM.
On to `Cc1c(Cl)cccc1NC(=O)c1sc2nc3c(cc2c1N)CCCCC3`, for which the GI50 is 217 nM in [1]; 104 nM in [2]; 298 nM in assay [3]; 1330 nM in assay [4]; 331 nM in assay [5]; 230 nM in assay [6]. For the same compound, the GI50 in assay [7] was 233 nM; in [8], 171 nM; in [9] it was 4680 nM; in assay [10], 227 nM. Moreover, the TGI was 5570 nM in assay [1]; 317 nM in assay [2]; above 50000 nM in assay [3]; above 50000 nM in [4]; 19300 nM in assay [5]; 29900 nM in assay [6]. Further, the TGI in [7] is above 50000 nM; in assay [8], 9070 nM; in assay [9] it was 34100 nM; in assay [10], above 50000 nM.
